Laboratory results reported in the NIST ThermoML archive (doi:10.1016/j.fluid.2014.03.019).
Numbers after ± are expanded uncertainties.

How the values were obtained:
[1] = wn = mass fraction of the nth substance listed; details: Liquid, Vibrating tube method
[2] = refractive index (Na D-line) (dimensionless); wn = mass fraction of the nth substance listed; details: Liquid, Standard Abbe refractometry

mass density ([1]; 288.15 K, w1 = 0.0187) [kg/m3]	mass density ([1]; 298.15 K, w1 = 0.0336) [kg/m3]	refractive index ([2]; 288.15 K, w1 = 0.0187)	refractive index ([2]; 298.15 K, w1 = 0.0336)	mass density ([1]; 288.15 K, w1 = 0.2596) [kg/m3]	mass density ([1]; 298.15 K, w1 = 0.2561) [kg/m3]	refractive index ([2]; 288.15 K, w1 = 0.2596)	refractive index ([2]; 298.15 K, w1 = 0.2561)	Structure (SMILES)
1023.17 ± 0.34	1035.63 ± 0.26	1.341 ± 0.0005	1.3452 ± 0.0004	–	–	–	–	O=B[O-].[Li+] [lithium metaborate] + O
–	–	–	–	1246.65 ± 1.8	1245.02 ± 2.7	1.3788 ± 0.0005	1.3771 ± 0.0006	O=S(=O)([O-])[O-].[Li+].[Li+] [lithium sulfate] + O
